Measurements from patent US11795204B2 (Zealand Pharma A/S, priority 2012, dated 2023).
Square brackets hold non-standard residues; d marks the D form. Peptide text beside a SMILES is read from it. Dab = NCC[C@H](N)C(=O)O; Aib = CC(C)(N)C(=O)O

Columns and labels:
[1] = Chemical stability assessment (RP-HPLC normalized purity); format: physicochemical; conditions: for Normalized purity pH 4.0 after 14 days: 1 mg/ml in 50 mM acetate buffer pH 4.0, 40° C.; for Normalized purity pH 7.5 after 14 days: 1 mg/ml in 50 mM phosphate buffer pH 7.5, 40° C.
Method: Samples were placed in glass vials and incubated at 40° C. The samples were analysed by reverse-phase HPLC on a C18 column with gradient elution using an acetonitrile/trifluoroacetic acid/water eluent system. The area-percentage (area-%) of the main peak after incubation time T=t (relative to time T=0) was detected by UV spectrometry at 220 nm. The purity was first determined as follows: Purity(area-%)=(area of main peak/total area of all peaks)×100. […] Normalized purity values in Table 2 were determined after 14 days of incubation.

[2] = molecular target: T1, human Glucagon-R (Homo sapiens, UniProt P47871); experiment: Glucagon receptor assay (cAMP induction, AlphaScreen); format: cell-based; conditions: HEK293 cells expressing the human Glucagon-R, 15 min at 37° C., read-out: GCG-R EC50 in vitro
T1 construct: expressed in transfected cells
T1 sequence (P47871 26-477): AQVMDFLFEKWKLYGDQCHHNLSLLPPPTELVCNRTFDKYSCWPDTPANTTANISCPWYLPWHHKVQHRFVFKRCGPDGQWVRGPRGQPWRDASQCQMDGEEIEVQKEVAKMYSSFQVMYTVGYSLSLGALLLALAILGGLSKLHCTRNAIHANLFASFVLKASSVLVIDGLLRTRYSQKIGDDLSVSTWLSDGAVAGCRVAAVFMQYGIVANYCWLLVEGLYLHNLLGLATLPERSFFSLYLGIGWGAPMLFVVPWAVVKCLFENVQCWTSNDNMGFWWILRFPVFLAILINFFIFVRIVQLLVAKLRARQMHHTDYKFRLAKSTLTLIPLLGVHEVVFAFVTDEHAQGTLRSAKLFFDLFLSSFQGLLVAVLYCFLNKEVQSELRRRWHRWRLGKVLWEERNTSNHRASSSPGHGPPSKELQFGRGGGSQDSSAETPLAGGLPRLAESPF
Method: The 5′-end primers additionally encoded a near-Kozak consensus sequence to ensure efficient translation. […] 48 hr after transfection, cells were seeded for limited dilution cloning and selected with 1 mg/ml G418 in the culture medium.
On the day of analysis, growth medium was removed and the cells were washed once with […] of the included Assay buffer with IBMX. Cells were incubated in […] Assay buffer/IBMX containing increasing concentrations of test peptides for 15 min at 37° C. Then the peptides/Assay buffer was removed and cells were lysed by addition of […] Lysis buffer pr. well and incubation for at least 10 min at room temperature. From each well […] cell lysate was transferred to a 384-well OptiPlate and mixed with Donor and Acceptor beads and incubated for 1 h at room temperature. The cAMP content was measured on an Envision plate reader.

[3] = physchem; conditions: pH 7.5
Method: A stock solution of the test peptide (2 mg/ml; determined by measurement of the absorption of the solution at 280 nm, and using the theoretical extension coefficient based on the content of tryptophan and tyrosine in the peptide) in demineralized water adjusted to pH 2.5 with HCl was prepared, and aliquots were diluted 1:1 in 100 mM acetate buffer (pH 4.0) and 100 mM phosphate buffer (pH 7.5), respectively, and loaded in a standard flat-bottom, non-sterile 96-well UV Microplate. The absorbance of samples (single samples, n=1) at 280 and 325 nm was measured in an absorbance-based plate reader, which was preheated to ambient temperature.

Molecule	Normalized purity pH 4.0 after 14 days [1] [%]	Normalized purity pH 7.5 after 14 days [1] [%]	EC50 [2] [pM]	solubility [3] [µg/mL]
H-HSQGTFTSDYSKYLDSARAEDFVAWLEST-OH [Compound 4]	80.5	84.6	340	≥ 1000
CC(C)C[C@H](NC(=O)[C@H](Cc1c[nH]c2ccccc12)NC(=O)[C@H](CCCCN)NC(=O)[C@@H](NC(=O)[C@H](Cc1ccccc1)NC(=O)[C@H](CC(=O)O)NC(=O)[C@H](CCC(=O)O)NC(=O)[C@H](C)NC(=O)[C@H](CCCNC(=N)N)NC(=O)[C@H](C)NC(=O)C(C)(C)NC(=O)[C@H](CC(=O)O)NC(=O)[C@H](CC(C)C)NC(=O)[C@H](Cc1ccc(O)cc1)NC(=O)[C@H](CCCCN)NC(=O)[C@H](CO)NC(=O)[C@H](Cc1ccc(O)cc1)NC(=O)[C@H](CC(=O)O)NC(=O)[C@H](CO)NC(=O)[C@@H](NC(=O)[C@H](Cc1ccccc1)NC(=O)[C@@H](NC(=O)CNC(=O)[C@H](CCC(N)=O)NC(=O)[C@H](CO)NC(=O)[C@@H](N)Cc1c[nH]cn1)[C@@H](C)O)[C@@H](C)O)C(C)C)C(=O)N[C@@H](CCC(=O)O)C(=O)N[C@@H](CO)C(=O)N[C@H](C(=O)O)[C@@H](C)O [Compound 12] (H-HSQGTFTSDYSKYLD[Aib]ARAEDFVKWLEST-OH)	86.8	90.8	30	≥ 1000
CC(C)C[C@H](NC(=O)[C@H](Cc1c[nH]c2ccccc12)NC(=O)[C@H](CCCCN)NC(=O)[C@@H](NC(=O)[C@H](Cc1ccccc1)NC(=O)[C@H](CO)NC(=O)[C@H](CCC(=O)O)NC(=O)[C@H](C)NC(=O)[C@H](CCCNC(=N)N)NC(=O)[C@H](C)NC(=O)C(C)(C)NC(=O)[C@H](CC(=O)O)NC(=O)[C@H](CC(C)C)NC(=O)[C@H](Cc1ccc(O)cc1)NC(=O)[C@H](CCCCN)NC(=O)[C@H](CO)NC(=O)[C@H](Cc1ccc(O)cc1)NC(=O)[C@H](CC(=O)O)NC(=O)[C@H](CO)NC(=O)[C@@H](NC(=O)[C@H](Cc1ccccc1)NC(=O)[C@@H](NC(=O)[C@@H](C)NC(=O)[C@H](CCC(N)=O)NC(=O)[C@H](CO)NC(=O)[C@@H](N)Cc1c[nH]cn1)[C@@H](C)O)[C@@H](C)O)C(C)C)C(=O)N[C@@H](CCC(=O)O)C(=O)N[C@@H](CO)C(=O)N[C@H](C(=O)O)[C@@H](C)O [Compound 22] (H-HSQ[dA]TFTSDYSKYLD[Aib]ARAESFVKWLEST-OH)	91.1	95.3	24	≥ 1000
H-HSQGTFTSDYSKYLDSARAEDFVKWLEET-OH [Compound 2]	83.5	86.2	180	≥ 1000
H-HSQGTFTSDYSKYLDLARAEDFVKWLEST-OH [Compound 17]	89.9	88.3	29	≥ 1000
H-HSQGTFTSDYSKYLDKARAEDFVKWLEST-OH [Compound 3]	85.0	86.5	30	≥ 1000
H-HSQGTFTSDLSKYLDSARAEDFVKWLEST-OH [Compound 11]	78.6	89.9	110	≥ 1000
CNC(=O)CC[C@H](NC(=O)[C@H](CO)NC(=O)[C@@H](N)Cc1c[nH]cn1)C(=O)NCC(=O)N[C@H](C(=O)N[C@@H](Cc1ccccc1)C(=O)N[C@H](C(=O)N[C@@H](CO)C(=O)N[C@@H](CC(=O)O)C(=O)N[C@@H](Cc1ccc(O)cc1)C(=O)N[C@@H](CO)C(=O)N[C@@H](CCCCN)C(=O)N[C@@H](Cc1ccc(O)cc1)C(=O)N[C@@H](CC(C)C)C(=O)N[C@@H](CC(=O)O)C(=O)NC(C)(C)C(=O)N[C@@H](C)C(=O)N[C@@H](CCCNC(=N)N)C(=O)N[C@@H](C)C(=O)N[C@@H](CCC(=O)O)C(=O)N[C@@H](CO)C(=O)N[C@@H](Cc1ccccc1)C(=O)N[C@H](C(=O)N[C@@H](CCCCN)C(=O)N[C@@H](Cc1c[nH]c2ccccc12)C(=O)N[C@@H](CC(C)C)C(=O)N[C@@H](CCC(=O)O)C(=O)N[C@@H](CO)C(=O)N[C@H](C(=O)O)[C@@H](C)O)C(C)C)[C@@H](C)O)[C@@H](C)O [Compound 26] (H-HSE(NHMe)GTFTSDYSKYLD[Aib]ARAESFVKWLEST-OH)	90	93.9	6.9	≥ 1000
H-HSQGTFTSDYSKYLESARAESFVKWLEST-OH [Compound 16]	89.1	–	390	≥ 1000
H-HSQGTFTSDYSKYLDEARAEDFVKWLEST-OH [Compound 14]	89.5	92.4	150	≥ 1000
CC(C)C[C@H](NC(=O)[C@H](Cc1c[nH]c2ccccc12)NC(=O)[C@H](CCCCN)NC(=O)[C@@H](NC(=O)[C@H](Cc1ccccc1)NC(=O)[C@H](CO)NC(=O)[C@H](CCC(=O)O)NC(=O)[C@H](C)NC(=O)[C@H](CCCNC(=N)N)NC(=O)[C@H](C)NC(=O)C(C)(C)NC(=O)[C@H](CC(=O)O)NC(=O)[C@H](CC(C)C)NC(=O)[C@H](Cc1ccc(O)cc1)NC(=O)[C@H](CCCCN)NC(=O)[C@H](CO)NC(=O)[C@H](Cc1ccc(O)cc1)NC(=O)[C@H](CC(=O)O)NC(=O)[C@H](CO)NC(=O)[C@@H](NC(=O)[C@H](Cc1ccccc1)NC(=O)[C@@H](NC(=O)CNC(=O)[C@H](CCC(N)=O)NC(=O)[C@H](CO)NC(=O)[C@@H](N)Cc1c[nH]cn1)[C@@H](C)O)[C@@H](C)O)C(C)C)C(=O)N[C@@H](CCC(=O)O)C(=O)N[C@@H](CO)C(=O)N[C@@H](C)C(=O)O [Compound 30] (H-HSQGTFTSDYSKYLD[Aib]ARAESFVKWLESA-OH)	88.6	91.4	16	≥ 1000
H-HSQGTFTSDYSKYLDSARAEDFVKWLES-OH [Compound 13]	84.6	88.8	70	≥ 1000
CC(=O)NCC[C@H](NC(=O)[C@H](CO)NC(=O)[C@@H](N)Cc1c[nH]cn1)C(=O)NCC(=O)N[C@H](C(=O)N[C@@H](Cc1ccccc1)C(=O)N[C@H](C(=O)N[C@@H](CO)C(=O)N[C@@H](CC(=O)O)C(=O)N[C@@H](Cc1ccc(O)cc1)C(=O)N[C@@H](CO)C(=O)N[C@@H](CCCCN)C(=O)N[C@@H](Cc1ccc(O)cc1)C(=O)N[C@@H](CC(C)C)C(=O)N[C@@H](CC(=O)O)C(=O)NC(C)(C)C(=O)N[C@@H](C)C(=O)N[C@@H](CCCNC(=N)N)C(=O)N[C@@H](C)C(=O)N[C@@H](CCC(=O)O)C(=O)N[C@@H](CO)C(=O)N[C@@H](Cc1ccccc1)C(=O)N[C@H](C(=O)N[C@@H](CCCCN)C(=O)N[C@@H](Cc1c[nH]c2ccccc12)C(=O)N[C@@H](CC(C)C)C(=O)N[C@@H](CCC(=O)O)C(=O)N[C@@H](CO)C(=O)N[C@H](C(=O)O)[C@@H](C)O)C(C)C)[C@@H](C)O)[C@@H](C)O [Compound 32] (H-HS[Dab](Ac)GTFTSDYSKYLD[Aib]ARAESFVKWLEST-OH)	91.2	96.3	9.3	≥ 1000
CC(C)C[C@H](NC(=O)[C@H](Cc1c[nH]c2ccccc12)NC(=O)[C@H](CCCCN)NC(=O)[C@@H](NC(=O)[C@H](Cc1ccccc1)NC(=O)[C@H](CO)NC(=O)[C@H](CCC(=O)O)NC(=O)[C@H](C)NC(=O)[C@H](CCCNC(=N)N)NC(=O)[C@H](C)NC(=O)C(C)(C)NC(=O)[C@H](CC(=O)O)NC(=O)[C@H](CC(C)C)NC(=O)[C@H](Cc1ccc(O)cc1)NC(=O)[C@H](CCCCN)NC(=O)[C@H](CO)NC(=O)[C@H](Cc1ccc(O)cc1)NC(=O)[C@H](CC(=O)O)NC(=O)[C@H](CO)NC(=O)[C@@H](NC(=O)[C@H](Cc1ccccc1)NC(=O)[C@@H](NC(=O)CNC(=O)[C@H](CCC(N)=O)NC(=O)[C@H](CO)NC(=O)[C@@H](N)Cc1c[nH]cn1)[C@@H](C)O)[C@@H](C)O)C(C)C)C(=O)N[C@@H](CCC(=O)O)C(=O)N[C@@H](CO)C(=O)N[C@H](C(N)=O)[C@@H](C)O [Compound 31] (H-HSQGTFTSDYSKYLD[Aib]ARAESFVKWLEST-NH2)	93.1	91.7	7.2	≥ 1000
H-HSQGTFTSDYSKYLDEARAKDFVEWLEKT-OH [Compound 5]	91.8	89.6	170	≥ 1000
